Source: ChEMBL document CHEMBL1201862, “PubChem BioAssay data set” (2004)
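Cells were grown in 96-well plates and exposed to each compound for 48 hours at five concentrations; endpoints were interpolated linearly between bracketing concentrations, or set to the highest concentration if not reached. Here, GI50 denotes the concentration required for 50% inhibition of growth.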 Activity calls are given as the source filed them. No stated cut-off is given here; in the data, active = GI50 up to about 1.1 µM and inactive = higher.

Tests used:
Assay in all cases: growth of human tumour cells (NCI), 48 h
[1] = test system: 786-0
[2] = test system: A498
[3] = test system: A549
[4] = test system: ACHN
[5] = test system: BT-549
[6] = test system: CAKI-1
[7] = test system: CCRF-CEM
[8] = test system: EKVX
[9] = test system: HCC 2998
[10] = test system: HCT-15
[11] = test system: HL-60
[12] = test system: HOP-92
[13] = test system: HT-29
[14] = test system: Hs-578T
[15] = test system: IGROV-1
[16] = test system: K562
[17] = test system: KM12
[18] = test system: LOX IMVI
[19] = test system: M14
[20] = test system: MCF7
[21] = test system: MOLT-4
[22] = test system: NCI-H226
[23] = test system: NCI-H23
[24] = test system: NCI-H460
[25] = test system: NCI/ADR-RES
[26] = test system: OVCAR-3
[27] = test system: OVCAR-4
[28] = test system: OVCAR-5
[29] = test system: OVCAR-8
[30] = test system: PC-3
[31] = test system: RPMI-8226
[32] = test system: RXF 393
[33] = test system: SF-268
[34] = test system: SF-539
[35] = test system: SK-MEL-28
[36] = test system: SK-MEL-5
[37] = test system: SK-OV-3
[38] = test system: SN12C
[39] = test system: SNB-19
[40] = test system: SNB-75
[41] = test system: SR
[42] = test system: SW-620
[43] = test system: TK-10
[44] = test system: U-251
[45] = test system: UACC-62
[46] = test system: UO-31
[47] = test system: COLO 205
[48] = test system: DU-145
[49] = test system: HCT-116
[50] = test system: HOP-62
[51] = test system: MDA-MB-231
[52] = test system: MDA-MB-435
[53] = test system: MDA-N
[54] = test system: Malme-3M
[55] = test system: NCI-H522
[56] = test system: SF-295
[57] = test system: T47D
[58] = test system: UACC-257

Structure (SMILES): O=C1CCCC2=C1CC1=C(CCCC1=O)N2c1ccccc1
- GI50 [1]: > 100 µM (inactive)
- GI50 [2]: > 100 µM (inactive)
- GI50 [3]: > 100 µM (inactive)
- GI50 [4]: > 100 µM (inactive)
- GI50 [5]: > 100 µM (inactive)
- GI50 [6]: > 100 µM (inactive)
- GI50 [7]: > 100 µM (inactive)
- GI50 [8]: > 100 µM (inactive)
- GI50 [9]: > 100 µM (inactive)
- GI50 [10]: > 100 µM
- GI50 [11]: > 100 µM (inactive)
- GI50 [12]: > 100 µM (inactive)
- GI50 [13]: > 100 µM (inactive)
- GI50 [14]: > 100 µM (inactive)
- GI50 [15]: > 100 µM (inactive)
- GI50 [16]: > 100 µM (inactive)
- GI50 [17]: > 100 µM (inactive)
- GI50 [18]: > 100 µM (inactive)
- GI50 [19]: > 100 µM (inactive)
- GI50 [20]: > 100 µM (inactive)
- GI50 [21]: > 100 µM (inactive)
- GI50 [22]: > 100 µM (inactive)
- GI50 [23]: > 100 µM (inactive)
- GI50 [24]: > 100 µM (inactive)
- GI50 [25]: > 100 µM (inactive)
- GI50 [26]: > 100 µM (inactive)
- GI50 [27]: > 100 µM (inactive)
- GI50 [28]: > 100 µM (inactive)
- GI50 [29]: > 100 µM (inactive)
- GI50 [30]: > 100 µM (inactive)
- GI50 [31]: > 100 µM (inactive)
- GI50 [32]: 40.7 µM (inactive)
- GI50 [33]: > 100 µM (inactive)
- GI50 [34]: > 100 µM (inactive)
- GI50 [35]: > 100 µM (inactive)
- GI50 [36]: > 100 µM (inactive)
- GI50 [37]: > 100 µM (inactive)
- GI50 [38]: > 100 µM (inactive)
- GI50 [39]: > 100 µM (inactive)
- GI50 [40]: > 100 µM (inactive)
- GI50 [41]: > 100 µM (inactive)
- GI50 [42]: > 100 µM (inactive)
- GI50 [43]: > 100 µM (inactive)
- GI50 [44]: > 100 µM (inactive)
- GI50 [45]: > 100 µM (inactive)
- GI50 [46]: > 100 µM (inactive)

Structure (SMILES): CN1C(=O)N(C)C2(CCN(CCCCCCF)CC2)C1=O
- GI50 [1]: > 100 µM (inactive)
- GI50 [3]: > 100 µM (inactive)
- GI50 [4]: > 100 µM (inactive)
- GI50 [5]: 23.3 µM (inactive)
- GI50 [6]: > 100 µM (inactive)
- GI50 [7]: > 100 µM (inactive)
- GI50 [47]: > 100 µM (inactive)
- GI50 [48]: > 100 µM (inactive)
- GI50 [8]: > 100 µM (inactive)
- GI50 [9]: > 100 µM (inactive)
- GI50 [49]: > 100 µM (inactive)
- GI50 [10]: > 100 µM
- GI50 [11]: > 100 µM (inactive)
- GI50 [50]: > 100 µM (inactive)
- GI50 [13]: > 100 µM (inactive)
- GI50 [15]: > 100 µM (inactive)
- GI50 [16]: > 100 µM (inactive)
- GI50 [17]: > 100 µM (inactive)
- GI50 [18]: > 100 µM (inactive)
- GI50 [19]: > 100 µM (inactive)
- GI50 [20]: > 100 µM (inactive)
- GI50 [51]: > 100 µM (inactive)
- GI50 [52]: 26 µM (inactive)
- GI50 [53]: > 100 µM (inactive)
- GI50 [21]: > 10 µM (inactive)
- GI50 [54]: > 100 µM (inactive)
- GI50 [22]: > 100 µM (inactive)
- GI50 [23]: > 100 µM (inactive)
- GI50 [55]: > 100 µM (inactive)
- GI50 [25]: > 100 µM (inactive)
- GI50 [26]: > 100 µM (inactive)
- GI50 [28]: > 100 µM (inactive)
- GI50 [29]: > 100 µM (inactive)
- GI50 [30]: > 100 µM (inactive)
- GI50 [31]: > 100 µM (inactive)
- GI50 [32]: > 100 µM (inactive)
- GI50 [33]: > 100 µM (inactive)
- GI50 [56]: > 100 µM (inactive)
- GI50 [34]: > 100 µM (inactive)
- GI50 [35]: > 100 µM (inactive)
- GI50 [36]: > 100 µM (inactive)
- GI50 [37]: > 100 µM (inactive)
- GI50 [38]: > 100 µM (inactive)
- GI50 [39]: > 100 µM (inactive)
- GI50 [40]: > 100 µM (inactive)
- GI50 [41]: > 100 µM (inactive)
- GI50 [42]: > 100 µM (inactive)
- GI50 [57]: > 100 µM (inactive)
- GI50 [43]: > 100 µM (inactive)
- GI50 [44]: > 100 µM (inactive)
- GI50 [58]: > 100 µM (inactive)
- GI50 [45]: > 100 µM (inactive)
- GI50 [46]: > 100 µM (inactive)
